Experimental data from US7150886B2, “Composition for treating diseased liver” (Industrial Technology Research Institute, priority 2002, dated 2006).

Tests used:
[1] = tested on: rats with d-galactosamine-induced acute hepatitis; assay: D-galactosamine-induced acute hepatitis in rats, serum GOT and GPT; assay type: in vivo; settings: rat serum 24 h after d-galactosamine i.p. (500 mg/kg); test substance oral × 3, dose per group as in Table 3; N = 5
Experimental: The liver enzymes were dramatically released to the blood stream when the hepatocyte was damaged, and thus the serum GOT and GPT values increased. […] In other words, the restoration effects of the extracts on the damaged liver were evaluated through comparing the GOT and GPT variations before and after a treatment of the extracts.
Five male rats were divided in each group, each rat with body weight about 200±20 g. […] The reference group was orally given guanine (300 mg/kg). Half an hour later, each group was i.p. with d-galactosamine (500 mg/kg), except the control group. Four and eight hours after first injection, test substances were administered orally again at the same dose. After 24 hours, the animals were sacrificed, and the blood was collected from the carotid arteries. The serum was separated and incubated at room temperature for 10 minutes, and then centrifuged (Backman centrifuge, GS-6R, 3000 rpm) for another 10 minutes. The activities of rat serum GOT (Glutamyl Oxaloacetic Transaminase) and GPT (Glutamyl Pyrubic Transaminase) were measured.

[2] = tested on: B type hepatitis; settings: treating B type hepatitis; cited from earlier work

Compound | GOT [1] [U/L] | GPT [1] [U/L] | positive response [2] [%]
Nc1nc2nc[nH]c2c(=O)[nH]1 [Guanine, guanine] | 1024.8 ± 91.1 | 602.4 ± 61.7 | 
interferon |  |  | 20
